According to patent US9675591B2, “Methods for treating seizure disorders and pain” (THE REGENTS OF THE UNIVERSITY OF CALIFORNIA, priority 2013, dated 2017):
Where two headings read alike, the source gives them in different places.

Experiments:
[1] = target: Nav1.5 (Homo sapiens (Human), UniProt Q14524); experiment: Voltage-clamp, Nav1.5 in HEK-293 cells; format: cell-based
Procedure: All experiments were conducted at room temperature (22-24° C.) with an EPC-10 amplifier and Pulse software (HEKA, Lambrecht/Pfalz, Germany) in the whole-cell mode of the patch-clamp technique. Human embryonic kidney (HEK)-293 cell lines stably expressing hNav1.1, hNav1.5, hNav1.7 channels (generously provided by Dr. Christopher Lossin, University of California Davis), hNav1.4 (Frank Lehmann-Horn, University of Ulm), or hKv2.1 channels (James Trimmer, University of California Davis) were bathed in extracellular solution containing (in mM): 160 NaCl; 4.5 KCl; 1 MgCl2; 2 CaCl2; 10 HEPES [pH was adjusted to 7.4 using NaOH (310 mOsm)]. Pipettes were filled with intracellular solution containing (in mM): 145 KF; 2 MgCl2; 10 ethylene glycol tetraacetic acid; 10 HEPES (pH adjusted to 7.2 with KOH; 300 mOsm). Neuroblastoma N1E-115 cells (ATCC, Manassa, Va., USA) expressing Nav1.2 were patched with a CsF internal solution consisting of (in mM): 10 NaF; 110 CsF; 20 CsCl; 2 ethylene glycol tetraacetic acid; 10 HEPES (CsOH to pH 7.35; 300 mOsm). All pipette tip resistances were 2-4 MΩ. Series resistances of 3-10 MΩ were compensated 40-80%. All cells were voltage-clamped to a holding potential of −90 mV unless otherwise specified. The sampling frequency was 5 kHz. Na^+ currents were elicited by 30-ms pulse to 0 mV from −90 mV applied every 10 s. […]

[2] = test system: MES-induced seizures; experiment: Maximal electroshock (MES) seizure test, mice (ASP, methylcellulose suspension); format: in vivo
Procedure: SKA-19 was tested under the auspices of the National Institutes of Health's Anticonvulsant Screening Program (ASP). Experiments were performed in male albino CF (Carworth Farms) No. 1 mice or Sprague-Dawley rats according to the established protocols of the ASP (White et al., 2002). SKA-19 was suspended in 0.5% methylcellulose and administered in a volume that permits accuracy of dosage without excessively contributing to total body fluid (0.01 ml/g body weight for mice and 0.04 ml/10 g body weight for rats).
Animals received an electrical stimulus of 0.2 s duration (50 mA in mice and 150 mA in rat at 60 Hz) delivered via corneal electrodes primed with an electrolyte solution containing 0.5% tetracaine. Animals were restrained by hand and released immediately after stimulation to permit observation of the seizure throughout its entire course. In the initial screens to identify anticonvulsant activity mice were tested at 30 minutes and 4 hours following doses of 3, 10, 30, 100 and 300 mg/kg of SKA-19 and rats tested at time intervals between 0.25 and 4 hours following a standard oral dose of 30 mg/kg. In the subsequent, more quantitative tests at least four doses of SKA-19 (n=8 per dose) were tested at the previously determined time of peak effect (TPE). Abolition of hindlimb tonic extension indicates the test compound's ability to inhibit MES-induced seizure spread. Tonic extension is considered abolished if the hind limbs are not fully extended at 180° with the body.

[3] = target: Nav1.3 (Homo sapiens (Human), UniProt Q9NY46); experiment: Voltage-clamp, Nav1.3; format: cell-based; conditions: read-out: EC50 or IC50, Nav1.3
Sequence of Nav1.3 (Q9NY46 whole entry): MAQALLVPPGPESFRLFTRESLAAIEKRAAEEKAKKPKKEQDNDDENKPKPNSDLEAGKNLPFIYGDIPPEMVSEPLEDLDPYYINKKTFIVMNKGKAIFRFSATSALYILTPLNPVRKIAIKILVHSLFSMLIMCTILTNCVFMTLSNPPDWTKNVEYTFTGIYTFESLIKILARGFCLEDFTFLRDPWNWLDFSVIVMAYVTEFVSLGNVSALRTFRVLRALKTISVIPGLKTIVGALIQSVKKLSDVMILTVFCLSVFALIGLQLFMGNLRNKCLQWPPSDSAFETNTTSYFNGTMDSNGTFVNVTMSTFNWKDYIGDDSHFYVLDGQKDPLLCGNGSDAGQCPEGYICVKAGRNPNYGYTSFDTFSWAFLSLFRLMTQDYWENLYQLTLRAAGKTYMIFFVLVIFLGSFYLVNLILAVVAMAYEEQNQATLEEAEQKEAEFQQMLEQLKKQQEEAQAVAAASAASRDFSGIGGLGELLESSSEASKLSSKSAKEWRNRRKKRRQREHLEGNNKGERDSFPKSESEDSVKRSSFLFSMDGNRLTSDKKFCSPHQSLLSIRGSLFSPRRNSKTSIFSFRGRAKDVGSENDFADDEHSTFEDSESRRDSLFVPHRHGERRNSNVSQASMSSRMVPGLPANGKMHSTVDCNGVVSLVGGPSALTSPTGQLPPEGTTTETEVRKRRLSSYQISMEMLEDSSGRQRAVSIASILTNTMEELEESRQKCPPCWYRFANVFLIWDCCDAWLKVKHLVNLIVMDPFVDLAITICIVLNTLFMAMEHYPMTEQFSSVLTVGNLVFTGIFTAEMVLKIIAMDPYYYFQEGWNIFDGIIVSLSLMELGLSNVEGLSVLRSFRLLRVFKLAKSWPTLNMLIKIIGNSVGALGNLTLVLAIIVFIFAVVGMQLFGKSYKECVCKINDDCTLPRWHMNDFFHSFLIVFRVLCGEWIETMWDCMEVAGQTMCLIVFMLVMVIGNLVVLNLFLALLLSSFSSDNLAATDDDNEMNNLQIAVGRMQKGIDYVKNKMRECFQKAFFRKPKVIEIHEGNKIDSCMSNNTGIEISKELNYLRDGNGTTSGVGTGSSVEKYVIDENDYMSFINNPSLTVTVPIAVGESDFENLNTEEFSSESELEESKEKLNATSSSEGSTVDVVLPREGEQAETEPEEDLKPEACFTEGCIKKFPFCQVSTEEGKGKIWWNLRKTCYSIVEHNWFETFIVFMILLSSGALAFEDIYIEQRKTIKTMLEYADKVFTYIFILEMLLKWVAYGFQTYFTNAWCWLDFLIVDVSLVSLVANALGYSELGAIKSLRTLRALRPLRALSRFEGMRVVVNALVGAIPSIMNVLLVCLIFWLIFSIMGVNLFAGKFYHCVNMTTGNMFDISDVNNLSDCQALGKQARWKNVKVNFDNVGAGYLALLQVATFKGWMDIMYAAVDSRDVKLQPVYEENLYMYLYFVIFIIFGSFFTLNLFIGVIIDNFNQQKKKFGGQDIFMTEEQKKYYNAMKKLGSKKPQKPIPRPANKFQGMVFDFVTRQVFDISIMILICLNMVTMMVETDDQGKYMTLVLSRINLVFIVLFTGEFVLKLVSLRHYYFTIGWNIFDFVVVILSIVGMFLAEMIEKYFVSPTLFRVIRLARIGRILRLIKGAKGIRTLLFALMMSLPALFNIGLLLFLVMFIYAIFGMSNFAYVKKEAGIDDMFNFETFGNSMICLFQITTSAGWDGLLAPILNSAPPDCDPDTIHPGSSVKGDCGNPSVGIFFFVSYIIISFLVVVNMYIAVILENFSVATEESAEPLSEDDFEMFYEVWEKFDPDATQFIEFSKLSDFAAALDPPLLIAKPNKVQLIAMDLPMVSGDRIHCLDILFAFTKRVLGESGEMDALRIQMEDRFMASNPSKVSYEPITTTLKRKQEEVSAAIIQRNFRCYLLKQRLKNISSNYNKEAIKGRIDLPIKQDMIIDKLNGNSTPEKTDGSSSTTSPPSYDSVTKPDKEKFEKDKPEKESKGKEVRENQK

[4] = test system: 6 Hz seizures; experiment: 6 Hz seizure test, compounds given i.p. as solution; format: in vivo; conditions: Mus musculus, ip, 10 min, mice, values stated uncertain
Procedure: The mouse maximal electroshock (MES) and 6 Hz seizure models were used. Motor toxicity was assessed using a modification of the horizontal screen test. ED50 values in the seizure models and TD50 values in the toxicity test were determined by nonlinear fitting of dose-response curves. […] Drugs solutions were injected intraperitoneally 10 min prior to administration of the electrical stimulus in a volume of 10 ml/kg body weight.

[5] = test system: mice; experiment: Acute toxicity, rotorod test in mice; format: in vivo
Procedure: (§1) Abnormal neurological status in mice following SKA-19 administration was evaluated with the rotorod test. When a normal mouse is placed on a rod 1 inch in diameter that rotates at a speed of 6 rpm, the mouse can maintain equilibrium for a long time. Inability of the mouse to stay on the rotating rod in three trials for 1 min is taken as an indication of motor impairment. […] Mice were placed on a horizontally oriented grid (consisting of parallel 1.5-mm diameter rods situated 1 cm apart), and the grid was inverted. Animals that fell from the grid within 10 s were scored as impaired.

[6] = Acute toxicity, rotorod test in mice; format: in vivo; conditions: mouse, in vivo, ip, mice, i.p., suspension, read-out: TD50, ability of mice to stay on the rotorod
Procedure: as §1

[7] = test system: pentylenetetrazole-induced seizures; experiment: Subcutaneous Metrazol seizure test (scMET); format: in vivo
Procedure: A dose of subcutaneous pentylenetetrazole (Metrazole, MET) which induces convulsions in 97% of animals (CD97: 85 mg/kg mice or 56.4 mg/kg rats) was injected into a loose fold of skin at the neck. Animals were placed in isolation cages and observed for 30 min for the occurrence of clonic spasms persisting for at least 5 s.

[8] = target: KCa2.3 (SK3) (Homo sapiens (Human), UniProt Q9UGI6); experiment: Whole-cell patch-clamp, KCa2.3; format: cell-based; conditions: 250 nM free intracellular Ca2+; read-out: EC50 or IC50, KCa2.3
Procedure: HEK-293 or COS-7 cells stably expressing hKCa2.1, rKCa2.2, and hKCa2.3 have been described previously (Sankaranarayanan et al., 2009). Cells were held at −80 mV and KCa currents elicited by dialysis with a K^+ aspartate based internal containing 250 nM free Ca^2+ (pH 7.2, 290 mOsm, pipette resistance 1.5 MΩ). To reduce currents from native chloride channels, Na^+ aspartate Ringer was used as an external solution. KCa2 currents were recorded with 200-ms voltage ramps from −120 to +40 mV applied every 10 s, and the fold increase of slope conductance at −80 mV by drug was taken as a measure of channel activation. Data analysis, fitting, and plotting were performed with IGOR-Pro (Wavemetrics, Lake Oswego, Oreg., USA) and Origin 9.0 (OriginLab, Northampton, Mass., USA).

[9] = ASP anticonvulsant testing, suspension in 0.5% methylcellulose

Sequence of Nav1.5 (Q14524 whole entry): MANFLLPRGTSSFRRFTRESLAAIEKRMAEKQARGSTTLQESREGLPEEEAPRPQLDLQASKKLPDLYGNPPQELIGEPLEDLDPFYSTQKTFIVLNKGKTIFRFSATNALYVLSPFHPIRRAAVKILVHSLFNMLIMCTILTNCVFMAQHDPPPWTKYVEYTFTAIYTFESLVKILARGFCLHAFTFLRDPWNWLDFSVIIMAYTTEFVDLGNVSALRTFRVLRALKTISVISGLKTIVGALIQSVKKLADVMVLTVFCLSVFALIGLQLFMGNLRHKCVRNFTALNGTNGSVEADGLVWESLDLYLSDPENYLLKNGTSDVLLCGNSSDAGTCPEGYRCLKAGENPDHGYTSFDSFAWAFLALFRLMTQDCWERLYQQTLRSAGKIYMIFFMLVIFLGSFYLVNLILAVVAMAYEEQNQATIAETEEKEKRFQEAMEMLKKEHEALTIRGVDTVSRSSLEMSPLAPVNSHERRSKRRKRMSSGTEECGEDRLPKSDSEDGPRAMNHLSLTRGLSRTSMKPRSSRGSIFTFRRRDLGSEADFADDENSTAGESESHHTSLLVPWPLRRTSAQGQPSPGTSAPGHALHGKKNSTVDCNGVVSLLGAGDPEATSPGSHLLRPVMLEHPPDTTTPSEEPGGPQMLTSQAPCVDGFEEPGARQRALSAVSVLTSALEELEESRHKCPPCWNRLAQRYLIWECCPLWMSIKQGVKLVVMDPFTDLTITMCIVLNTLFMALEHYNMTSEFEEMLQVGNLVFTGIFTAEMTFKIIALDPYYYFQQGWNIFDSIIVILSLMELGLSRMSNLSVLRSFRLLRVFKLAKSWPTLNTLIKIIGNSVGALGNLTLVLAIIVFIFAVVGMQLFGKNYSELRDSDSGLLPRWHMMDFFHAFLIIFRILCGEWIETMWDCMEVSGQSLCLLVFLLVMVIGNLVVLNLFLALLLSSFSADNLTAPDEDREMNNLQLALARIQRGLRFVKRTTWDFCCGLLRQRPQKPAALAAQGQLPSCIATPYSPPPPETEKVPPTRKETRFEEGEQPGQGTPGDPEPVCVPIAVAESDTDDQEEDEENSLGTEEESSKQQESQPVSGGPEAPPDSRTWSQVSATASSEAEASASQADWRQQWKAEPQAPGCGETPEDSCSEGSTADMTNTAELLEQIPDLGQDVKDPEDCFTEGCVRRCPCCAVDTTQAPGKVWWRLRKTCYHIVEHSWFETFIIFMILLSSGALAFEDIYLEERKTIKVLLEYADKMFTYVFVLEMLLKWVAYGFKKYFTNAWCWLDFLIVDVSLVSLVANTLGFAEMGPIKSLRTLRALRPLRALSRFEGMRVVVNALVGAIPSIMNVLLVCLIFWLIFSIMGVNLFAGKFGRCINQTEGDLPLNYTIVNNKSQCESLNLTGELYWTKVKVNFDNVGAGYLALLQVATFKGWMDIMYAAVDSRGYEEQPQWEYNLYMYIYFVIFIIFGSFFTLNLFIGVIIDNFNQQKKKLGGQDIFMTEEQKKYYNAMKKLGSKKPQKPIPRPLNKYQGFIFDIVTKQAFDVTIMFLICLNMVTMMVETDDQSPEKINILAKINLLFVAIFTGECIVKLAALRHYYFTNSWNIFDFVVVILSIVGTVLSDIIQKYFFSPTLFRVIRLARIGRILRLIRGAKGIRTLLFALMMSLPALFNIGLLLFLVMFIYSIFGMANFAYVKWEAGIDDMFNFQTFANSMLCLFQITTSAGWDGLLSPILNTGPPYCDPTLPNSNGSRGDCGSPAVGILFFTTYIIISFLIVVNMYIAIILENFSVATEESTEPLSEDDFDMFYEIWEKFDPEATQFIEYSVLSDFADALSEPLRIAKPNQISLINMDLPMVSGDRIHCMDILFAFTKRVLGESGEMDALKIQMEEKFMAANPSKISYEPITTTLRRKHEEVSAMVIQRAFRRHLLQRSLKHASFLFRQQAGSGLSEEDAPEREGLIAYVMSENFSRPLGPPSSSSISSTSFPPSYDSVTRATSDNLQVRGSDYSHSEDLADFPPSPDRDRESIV

Nc1nc2ccc(SC(F)(F)F)cc2s1 [SKA-19, 6-((trifluoromethyl)thio)benzo[d]thiazol-2-amine]
block of Nav1.5 [1]: low micromolar range
IC50 ([1]; read-out: EC50 or IC50, Nav1.5): 5.8 ± 2.6 µM
duration of activity [2, 9]: 4 h
time of peak activity / maximal effect [2, 9]: 1 to 2 h
ED50 ([2]; Mus musculus, ip, mice, i.p., methylcellulose suspension, time of peak effect (SKA-19: 2 h), read-out: ED50, seizure protection in the MES test): 4.8 mg/kg
protection in the MES model, initial screen ([2]; mice, i.p., 3 mg/kg): partial protection
protection in the MES model, initial screen ([2]; mice, i.p., 10, 30 and 100 mg/kg): fully protected
protective index PI (TD50/ED50) ([2]; mice, i.p., suspension): 6.2
IC50 [3]: 2.2 ± 1.1 µM
ED50 [4]: 22.5 mg/kg
neurological deficit, rotorod ([5]; 100 mg/kg): inability to clasp the rotorod
mice that died ([5]; 100 mg/kg i.p.): two out of 8
neurological deficit / lethality ([5]; 300 mg/kg): sedation or death
ability of mice to stay on the rotorod ([5]; 0.5 and 4 hours after 3, 10 and 30 mg/kg): no impairment
TD50 ([6]; CF No. 1 (Carworth Farms)): 29.8 mg/kg
TD50 at 2 h ([6]; albino CF No. 1 (Carworth Farms)): 29.8 mg/kg
TD50 [6]: 29.7 mg/kg
death in the scMET test ([7]; 300 mg/kg): one animal treated with 300 mg/kg died
protection in the scMET test ([7]; 30 and 100 mg/kg): did not provide any protection
activity in the scMET test ([7]; mouse, in vivo): no significant activity
EC50 [8]: 15 µM
